Measured values published in article PMC10329973 (Clinical pharmacology in drug development, 2023).

Key:
CYP3A = conditions: ref unpublished data and Ref 35; cited from earlier work
rats and dogs = assay: Repeat-dose toxicity studies of up to 14 days; format: in vivo; conditions: repeat-dose toxicity studies up to 14 days, dose-limiting effect in both species
pre-clinical models = conditions: cited from earlier work
[1] = Single ascending dose study NP10679-101, plasma pharmacokinetics; format: in vivo, human; conditions: for half-life: healthy volunteers, SAD and MAD studies overall; for Vd: SAD
healthy adult volunteers = assay: Single ascending dose study NP10679-101, safety and tolerability; format: in vivo
over 40 CNS targets = conditions: cited from earlier work

In the case of `O=C1CCc2cc(OC[C@H](O)CN3CCN(c4ccc(C(F)(F)F)cc4)CC3)ccc2N1` [NP10679, (R)-6-(2-Hydroxy-3-(4-(4-(trifluoromethyl)phenyl)piperazin-1-yl)propoxy)-3,4-dihydroquinolin-2(1H)-one], the “time-dependent inhibition of CYP3A” value (CYP3A) is listed as “does not lead to significant time-dependent inhibition”, the “adverse effect directly related to IV administration” value (rats and dogs) is listed as “sedation” and the “somnolence in pre-clinical models” value (pre-clinical models) is listed as “leads to somnolence at doses above those necessary to achieve efficacy”. The half-life [1] was ~ 20 h, the clearance ([1]; human, plasma, intravenous) was 163 to 200 mL/min and the half-life ([1]; human, plasma, intravenous, half-life) was 20 h. For the same molecule, the Vd ([1]; human, plasma, intravenous, volume of distribution) was > 221 L, the AUC(0-inf) ([1]; human, plasma, iv, 5 mg) was 553 ± 204 ng·h/mL and the AUC(0-t) ([1]; human, plasma, iv, 5 mg) was 335 ± 46 ng·h/mL. The Cmax ([1]; human, plasma, iv, 5 mg) was 27 ± 15 ng/mL, the clearance ([1]; human, plasma, iv, 5 mg) was 163 mL/min and the Vd ([1]; human, plasma, iv, 5 mg, VSS, single IV infusion 5 mg, mean ± SD) was 435 ± 178 L. For the same molecule, the Vd ([1]; human, plasma, iv, 5 mg, Vd, area, mean, single IV infusion 5 mg) was 396 L, the AUC(0-inf) ([1]; human, plasma, iv, 15 mg) was 1280 ± 227 ng·h/mL and the AUC(0-t) ([1]; human, plasma, iv, 15 mg) was 1140 ± 233 ng·h/mL. For the same molecule, the Cmax ([1]; human, plasma, iv, 15 mg) was 99 ± 67 ng/mL, the clearance ([1]; human, plasma, iv, 15 mg) was 200 mL/min and the Vd ([1]; human, plasma, iv, 15 mg, VSS, single IV infusion 15 mg, mean ± SD) was 306 ± 41 L. The Vd ([1]; human, plasma, iv, 15 mg, Vd, area, mean, single IV infusion 15 mg) was 346 L, the AUC(0-inf) ([1]; human, plasma, iv, 50 mg) was 4680 ± 797 ng·h/mL and the AUC(0-t) ([1]; human, plasma, iv, 50 mg) was 3980 ± 544 ng·h/mL. For the same molecule, the Cmax ([1]; human, plasma, iv, 50 mg) was 415 ± 107 ng/mL, the clearance ([1]; human, plasma, iv, 50 mg) was 183 mL/min and the Vd ([1]; human, plasma, iv, 50 mg, VSS, single IV infusion 50 mg, mean ± SD) was 255 ± 20 L. It also gave a Vd ([1]; human, plasma, iv, 50 mg, Vd, area, mean, single IV infusion 50 mg) of 286 L, an AUC(0-inf) ([1]; human, plasma, iv, 100 mg) of 9860 ± 3220 ng·h/mL and an AUC(0-t) ([1]; human, plasma, iv, 100 mg) of 9370 ± 3090 ng·h/mL. For the same molecule, the Cmax ([1]; human, plasma, iv, 100 mg) was 746 ± 223 ng/mL, the clearance ([1]; human, plasma, iv, 100 mg) was 183 mL/min and the Vd ([1]; human, plasma, iv, 100 mg, VSS, single IV infusion 100 mg, mean ± SD) was 259 ± 57 L. The Vd ([1]; human, plasma, iv, 100 mg, Vd, area, mean, single IV infusion 100 mg) was 317 L, the AUC(0-inf) ([1]; human, plasma, iv, 150 mg) was 13900 ± 1280 ng·h/mL and the AUC(0-t) ([1]; human, plasma, iv, 150 mg) was 13600 ± 1220 ng·h/mL. For the same molecule, the Cmax ([1]; human, plasma, iv, 150 mg) was 954 ± 370 ng/mL, the clearance ([1]; human, plasma, iv, 150 mg) was 183 mL/min and the Vd ([1]; human, plasma, iv, 150 mg, VSS, single IV infusion 150 mg, mean ± SD) was 250 ± 23 L. For the same molecule, the Vd ([1]; human, plasma, iv, 150 mg, Vd, area, mean, single IV infusion 150 mg) was 286 L, the AUC(0-inf) ([1]; human, plasma, iv, 200 mg) was 20200 ± 4600 ng·h/mL and the AUC(0-t) ([1]; human, plasma, iv, 200 mg) was 19700 ± 4370 ng·h/mL. The Cmax ([1]; human, plasma, iv, 200 mg) was 2070 ± 798 ng/mL, the clearance ([1]; human, plasma, iv, 200 mg) was 167 mL/min and the Vd ([1]; human, plasma, iv, 200 mg, VSS, single IV infusion 200 mg, mean ± SD) was 221 ± 34 L. The Vd ([1]; human, plasma, iv, 200 mg, Vd, area, mean, single IV infusion 200 mg) was 245 L, the “dissociative symptoms or cognitive impairment (CADSS, DSST)” value (healthy adult volunteers; SAD) was “no evidence” and the “serious adverse events (SAEs)” value (healthy adult volunteers; SAD) was “No serious adverse events”. For the same molecule, the “vital signs or ECGs” value (healthy adult volunteers; SAD) was “no clinically significant changes”, the “changes in mean values of HDRS, MMSE, SBQ-R, GAD-7 and CADSS” value (healthy adult volunteers; SAD study) was “no detectable changes” and the “subjects reaching a level 3 score on the MOAA/S” value (healthy adult volunteers; SAD, 200 mg) was “no subject”. The “subjects with conjunctival and scleral hyperemia” value (healthy adult volunteers; SAD, 200 mg) was 3 of 6, the “subjects presenting with somnolence” value (healthy adult volunteers; SAD, at doses of 50 mg - 200 mg) was 5 of 6 and the “subjects presenting with somnolence” value (healthy adult volunteers; SAD, at each of doses 5 and 15 mg) was “One of 6”. For the same molecule, the “blood pressure (both systolic and diastolic)” value (healthy adult volunteers; SAD, highest two doses) was “non-clinically significant lower blood pressure”, the “subjects describing intrusive thoughts” value (healthy adult volunteers; SAD, single 150 mg dose) was “one subject” and the “Bond-Lader VAS scale” value (healthy adult volunteers; SAD, starting at 50 mg through 200 mg) was “moderate increases”. For the same molecule, the “activity at over 40 CNS targets” value (over 40 CNS targets) was “lacks demonstrable activity”.
